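Tested at 5 concentrations; 48 h exposure; 96-well plates; endpoints linearly interpolated, else capped at highest concentration. Here, GI50 denotes the concentration required for 50% inhibition of growth.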 The source made the active and inactive calls. No stated cut-off is given here; in the data, active = GI50 up to about 1.1 µM and inactive = higher. Numbered stars: 1 amine (or outer) side, 2 acyl side, 3 side chain; on linkers, the order of the positions; unused ones are H or OH. Bridge positions count the residues as written; N and C are the ends. Square brackets hold non-standard residues; d marks the D form. Peptide text beside a SMILES is read from it. X58 = COc1c(N[*:1])cccc1C(=O)O[C@H](C(=O)[C@H](C)C(=O)[*:2])C(C)C; X57 = CC(C)C[C@H](C(=O)[*:2])C(C)C(=O)C1CCCN1[*:1]; NMeY = CN[C@@H](Cc1ccc(O)cc1)C(=O)O; Lac = C[C@H](O)C(=O)O
What was measured:
Assay in all cases: NCI tumour cell line growth inhibition, 48 h
A498 = test system: A498
ACHN = test system: ACHN
EKVX = test system: EKVX
HCT-15 = test system: HCT-15
HOP-92 = test system: HOP-92
IGROV-1 = test system: IGROV-1
K562 = test system: K562
LOX IMVI = test system: LOX IMVI
MCF7 = test system: MCF7
MDA-MB-231 = test system: MDA-MB-231
Malme-3M = test system: Malme-3M
NCI-H460 = test system: NCI-H460
OVCAR-8 = test system: OVCAR-8
PC-3 = test system: PC-3
SF-539 = test system: SF-539
SK-OV-3 = test system: SK-OV-3
SNB-19 = test system: SNB-19
T47D = test system: T47D
UO-31 = test system: UO-31
CAKI-1 = test system: CAKI-1

Structure (SMILES) | GI50 (A498) | GI50 (ACHN) | GI50 (EKVX) | GI50 (HCT-15) [µM] | GI50 (HOP-92) | GI50 (IGROV-1) | GI50 (K562) | GI50 (LOX IMVI) | GI50 (MCF7) | GI50 (MDA-MB-231) | GI50 (Malme-3M) | GI50 (NCI-H460) | GI50 (OVCAR-8) | GI50 (PC-3) | GI50 (SF-539) | GI50 (SK-OV-3) | GI50 (SNB-19) | GI50 (T47D) | GI50 (UO-31) | GI50 (CAKI-1)
[N-]=[N+]=CC(=O)CCC(=O)N(c1ccccc1)c1ccccc1 | > 10 µM (inactive) | > 10 µM (inactive) | > 10 µM (inactive) | > 10 | > 10 µM (inactive) | > 10 µM (inactive) | > 10 µM (inactive) | > 10 µM (inactive) | > 10 µM (inactive) | > 10 µM (inactive) | > 10 µM (inactive) | > 10 µM (inactive) | > 10 µM (inactive) | > 10 µM (inactive) | > 10 µM (inactive) | > 10 µM (inactive) | > 10 µM (inactive) | > 10 µM (inactive) | > 10 µM (inactive) | 
Cc1ccc(/C=C2\N=C(N3CCCCC3)NC2=O)cc1 |  | > 100 µM (inactive) | > 100 µM (inactive) | > 100 | > 100 µM (inactive) |  |  | 94.4 µM (inactive) | > 100 µM (inactive) | > 100 µM (inactive) | > 100 µM (inactive) |  | 64.1 µM (inactive) | > 100 µM (inactive) | > 100 µM (inactive) | > 100 µM (inactive) | > 100 µM (inactive) | 58.1 µM (inactive) | > 100 µM (inactive) | > 100 µM (inactive)
Clc1ccc(-c2nc3cc(Cl)ccc3[nH]2)cc1 |  | 39.8 µM (inactive) | 34.9 µM (inactive) | 30.3 | 27.7 µM (inactive) | 43.4 µM (inactive) | 38.9 µM (inactive) | 29.1 µM (inactive) | 35.6 µM (inactive) | > 100 µM (inactive) | 48.2 µM (inactive) | 31.3 µM (inactive) | 37.6 µM (inactive) | 27.2 µM (inactive) | 22.6 µM (inactive) | 39.3 µM (inactive) | 41.4 µM (inactive) | 26.5 µM (inactive) | 26.2 µM (inactive) | > 100 µM (inactive)
O=C1/C(=C/c2ccccc2)N=C(c2ccccc2)N1n1c(-c2ccccc2)nc2ccccc2c1=O | 92 µM (inactive) | 89.1 µM (inactive) | 48.6 µM (inactive) | 72.4 | 97.5 µM (inactive) | > 100 µM (inactive) | 61.7 µM (inactive) | 35.6 µM (inactive) | 34 µM (inactive) | > 100 µM (inactive) | > 100 µM (inactive) | 58.9 µM (inactive) | > 100 µM (inactive) | 57.7 µM (inactive) | 83 µM (inactive) | > 100 µM (inactive) | 52.8 µM (inactive) | > 100 µM (inactive) | 83.2 µM (inactive) | 
O=C(O)Cc1cccc2c(=O)c3cccc([N+](=O)[O-])c3oc12 | > 100 µM (inactive) | > 100 µM (inactive) | > 100 µM (inactive) | > 100 |  | > 100 µM (inactive) | > 100 µM (inactive) | > 100 µM (inactive) | > 100 µM (inactive) | > 100 µM (inactive) | > 100 µM (inactive) | > 100 µM (inactive) | > 100 µM (inactive) | > 100 µM (inactive) | > 100 µM (inactive) | > 100 µM (inactive) | > 100 µM (inactive) | > 100 µM (inactive) | > 100 µM (inactive) | > 100 µM (inactive)
COC(=O)[C@]1(c2cc3ccccc3[nH]2)CC2CN(C(=O)OCc3ccccc3)C1C=C2OC (some centres undefined) |  | 25.8 µM (inactive) | 36.5 µM (inactive) | 34.8 | 32.5 µM (inactive) | 42.7 µM (inactive) | 37.4 µM (inactive) | 34 µM (inactive) | 25.6 µM (inactive) | 19.9 µM (inactive) | 28.9 µM (inactive) | 33.1 µM (inactive) | 43.4 µM (inactive) | 26.7 µM (inactive) | 25.4 µM (inactive) | 36.9 µM (inactive) | 42.1 µM (inactive) | 35.8 µM (inactive) |  | 28.5 µM (inactive)
COc1ccc(C[C@H]2C(=O)O[C@H](C)[C@H](NC(=O)[C@@H](CC(C)C)C(C)C(=O)C3CCCN3C(=O)[C@H](C)O)C(=O)Nc3cccc(c3OC)C(=O)O[C@@H](C(C)C)C(=O)[C@H](C)C(=O)N[C@@H](CC(C)C)C(=O)N3CCC[C@H]3C(=O)N2C)cc1 (some centres undefined) (H-[Lac][X57]T[X58]LP[NMeY](Me); ester 3-C) |  | 12.2 µM (inactive) | > 12.5 µM (inactive) | > 12.5 | > 12.5 µM (inactive) | > 12.5 µM (inactive) | 0.372 µM (active) | 9.66 µM (inactive) | > 12.5 µM (inactive) | > 12.5 µM (inactive) | > 12.5 µM (inactive) | 9.02 µM (inactive) | > 12.5 µM (inactive) | 3.85 µM (inactive) | > 12.5 µM (inactive) | > 12.5 µM (inactive) | 11 µM (inactive) | > 12.5 µM (inactive) | > 12.5 µM (inactive) | > 12.5 µM (inactive)

From ChEMBL document CHEMBL1201862, “PubChem BioAssay data set” (2004)
